Like-named read-outs stand apart in the source and are kept apart here.
Experiments:
p-PAK1(S144) = assay: In vitro cellular HTRF assay for p-PAK1(S144); format: cell-based; conditions: cell line RT4-D6P2T, read-out: pPAK1(S144)
Excerpt: (§1) Some of the compounds for treatment of cancer are subject to in vitro cellular HTRF assay for p-PAK1(S144) and p-MEK1(S298). The cell line is RT4-D6P2T.

p-MEK1(S298) = assay: In vitro cellular HTRF assay for p-MEK1(S298); format: cell-based; conditions: cell line RT4-D6P2T, read-out: pMEK1(S298)
Excerpt: as §1

PAK1 = PAK1 (Homo sapiens, UniProt Q13153); assay: Additional in vitro PAK1 inhibition assay at ATP 10 uM and 1 mM; format: biochemical
Procedure: (§2) Similar in vitro PAK1 and PAK-4 inhibition assays are conducted in compounds for the treatment of cancer, but under ATP concentrations of 10 uM and 1 mM.

PAK4 = PAK4 (Homo sapiens, UniProt O96013); assay: Additional in vitro PAK-4 inhibition assay at ATP 10 uM and 1 mM; format: biochemical; conditions: 10 μM ATP; read-out: PAK4 IC50 (10 μM ATP)
Procedure: as §2

[1] = 10 μM ATP, read-out: PAK1 IC50 (10 μM ATP)
[2] = 1 mM ATP, read-out: PAK1 IC50 (1 mM ATP)

PAK4, sequence (O96013 whole entry): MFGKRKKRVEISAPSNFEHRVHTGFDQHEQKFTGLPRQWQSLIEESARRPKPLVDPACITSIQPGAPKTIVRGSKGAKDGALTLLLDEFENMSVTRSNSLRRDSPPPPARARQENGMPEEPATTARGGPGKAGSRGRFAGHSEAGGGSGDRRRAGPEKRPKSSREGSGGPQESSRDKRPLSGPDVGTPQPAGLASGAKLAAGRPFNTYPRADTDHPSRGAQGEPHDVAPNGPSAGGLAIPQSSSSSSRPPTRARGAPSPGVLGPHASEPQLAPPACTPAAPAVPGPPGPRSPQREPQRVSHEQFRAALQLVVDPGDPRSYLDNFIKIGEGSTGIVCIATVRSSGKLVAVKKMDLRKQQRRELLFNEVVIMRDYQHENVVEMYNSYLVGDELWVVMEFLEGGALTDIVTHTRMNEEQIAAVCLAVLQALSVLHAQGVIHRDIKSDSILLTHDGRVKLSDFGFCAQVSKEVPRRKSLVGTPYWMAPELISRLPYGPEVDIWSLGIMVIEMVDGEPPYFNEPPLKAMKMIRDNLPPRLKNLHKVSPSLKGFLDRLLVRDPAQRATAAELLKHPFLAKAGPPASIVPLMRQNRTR
PAK1, sequence (Q13153 whole entry): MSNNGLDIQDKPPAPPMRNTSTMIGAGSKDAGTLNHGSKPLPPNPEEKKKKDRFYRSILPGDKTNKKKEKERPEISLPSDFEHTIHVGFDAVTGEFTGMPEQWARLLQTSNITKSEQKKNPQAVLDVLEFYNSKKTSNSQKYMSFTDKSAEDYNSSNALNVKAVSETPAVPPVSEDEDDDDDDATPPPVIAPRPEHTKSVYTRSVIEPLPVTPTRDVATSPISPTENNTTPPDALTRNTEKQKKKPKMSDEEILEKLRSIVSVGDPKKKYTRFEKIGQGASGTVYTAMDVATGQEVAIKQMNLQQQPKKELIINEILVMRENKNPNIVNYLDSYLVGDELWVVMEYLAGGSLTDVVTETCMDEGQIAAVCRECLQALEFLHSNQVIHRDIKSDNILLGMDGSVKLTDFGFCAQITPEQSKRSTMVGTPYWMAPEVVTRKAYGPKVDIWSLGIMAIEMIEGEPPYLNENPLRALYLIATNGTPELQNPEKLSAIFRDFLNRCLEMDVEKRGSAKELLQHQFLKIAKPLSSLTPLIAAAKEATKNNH

Structure (SMILES)	IC50 (p-PAK1(S144))	IC50 (p-MEK1(S298))	IC50 (PAK1; [1])	IC50 (PAK1; [2])	IC50 (PAK4)
Cc1nc(-c2ccc(-c3cc4cnc(NC5CCOCC5)nc4n(Cc4cccc(CN)c4)c3=O)c(Cl)c2)no1 [drawing 379]	0.05 to 0.5 µM	0.5 to 5 µM			
CN(C)C[C@@H](NC(=O)N1Cc2c(Nc3ncnc4sccc34)n[nH]c2C1(C)C)c1ccccc1	0.05 to 0.5 µM	0.5 to 5 µM			
Cc1nc(-c2ccc(-c3cc4cnc(NC5CCNC(=O)C5)nc4n(Cc4c(F)cccc4C(F)(F)F)c3=O)c(Cl)c2)no1 (centres unmarked) [drawing 382]	0.5 to 5 µM	> 5 µM			
Cc1nc(-c2ccc(-c3cc4cnc(NC5CCOCC5)nc4n(CC(=O)N4CCC(CN)CC4)c3=O)c(Cl)c2)no1 [drawing 381]		> 5 µM			
Cc1nc(-c2ccc(-c3cc4cnc(NC5CCOCC5)nc4n(Cc4ccc(CCN)cc4)c3=O)c(Cl)c2)no1 [drawing 394]	0.05 to 0.5 µM	0.5 to 5 µM			
Cc1nc(-c2ccc(-c3cc4cnc(NC5CCOCC5)nc4n(CCC4CCNCC4)c3=O)c(Cl)c2)no1 [drawing 378]		0.5 to 5 µM			
Cc1nc(-c2ccc(-c3cc4cnc(NC5CCOCC5)nc4n(CC(=O)NC4CCNC4)c3=O)c(Cl)c2)no1 (centres unmarked) [drawing 387]		> 5 µM			
CCn1c(=O)c(-c2ccc(-c3noc(C)n3)cc2Cl)cc2cnc(NC3CCC(=O)NC3)nc21 (centres unmarked)			0.5 to 5 µM	≥ 5 µM	≥ 5 µM
CCn1c(=O)c(-c2ccc(-c3noc(C)n3)cc2Cl)cc2cnc(N[C@H]3CC[C@H](N4CCN(C)CC4)CC3)nc21			0.5 to 5 µM	≥ 5 µM	≥ 5 µM
CCn1c(=O)c(-c2ccc(-c3noc(C)n3)cc2Cl)cc2cnc(NCC3CCOC3)nc21 (centres unmarked)			0.5 to 5 µM	≥ 5 µM	≥ 5 µM
CCCCNc1ncc2cc(-c3ccc(-c4noc(C)n4)cc3Cl)c(=O)n(CC)c2n1			0.5 to 5 µM	≥ 5 µM	≥ 5 µM
Cc1nc(-c2ccc(-c3cc4cnc(NC5CCOCC5)nc4n(C4CCNC4)c3=O)c(Cl)c2)no1 (centres unmarked)			0.5 to 5 µM	≥ 5 µM	≥ 5 µM
CCn1c(=O)c(-c2ccc(-c3noc(C)n3)cc2Cl)cc2cnc(NCC(=O)N(C)C)nc21			≥ 5 µM	≥ 5 µM	0.05 to 0.5 µM
CCn1c(=O)c(-c2ccc(-c3noc(C)n3)cc2Cl)cc2cnc(NC(C)C)nc21			0.5 to 5 µM	≥ 5 µM	≥ 5 µM
CCn1c(=O)c(-c2ccc(-c3noc(C)n3)cc2Cl)cc2cnc(NCC3CCCO3)nc21 (centres unmarked)			0.5 to 5 µM	≥ 5 µM	≥ 5 µM
CCn1c(=O)c(-c2ccc(-c3noc(C)n3)cc2Cl)cc2cnc(NC3CCCC3)nc21			0.5 to 5 µM	≥ 5 µM	0.5 to 5 µM
CCn1c(=O)c(-c2ccc(-c3noc(C)n3)cc2Cl)cc2cnc(NCc3ccccc3)nc21			0.5 to 5 µM	≥ 5 µM	≥ 5 µM
CCn1c(=O)c(-c2ccc(-c3noc(C)n3)cc2Cl)cc2cnc(NC3CCNC3=O)nc21 (centres unmarked)			≥ 5 µM	≥ 5 µM	≥ 5 µM
CCn1c(=O)c(-c2ccc(-c3noc(C)n3)cc2Cl)cc2cnc(NC3(C)CC3)nc21			0.5 to 5 µM	≥ 5 µM	≥ 5 µM

Continued, values first:

IC50 (p-PAK1(S144))	IC50 (p-MEK1(S298))	IC50 (PAK1; [1])	IC50 (PAK1; [2])	IC50 (PAK4)	Structure (SMILES)
		0.05 to 0.5 µM	0.5 to 5 µM	≥ 5 µM	Cc1nc(-c2ccc(-c3cc4cnc(NC5CCOCC5)nc4n(Cc4c(F)cccc4C(F)(F)F)c3=O)c(Cl)c2)no1
		0.05 to 0.5 µM	≥ 5 µM	≥ 5 µM	Cc1nc(-c2ccc(-c3cc4cnc(NC5CCOCC5)nc4n(CC(=O)N4CCCC(N)C4)c3=O)c(Cl)c2)no1 (centres unmarked)
		0.5 to 5 µM	≥ 5 µM	≥ 5 µM	CCn1c(=O)c(-c2ccc(-c3noc(C)n3)cc2Cl)cc2cnc(NCC(C)(C)O)nc21
		< 0.05 µM	0.5 to 5 µM	≥ 5 µM	Cc1nc(-c2ccc(-c3cc4cnc(NC5CCOCC5)nc4n(Cc4ccc(CCN)cc4)c3=O)c(Cl)c2)no1 [drawing 338]
		0.05 to 0.5 µM	≥ 5 µM	≥ 5 µM	Cc1nc(-c2ccc(-c3cc4cnc(NC5CCOCC5)nc4n(C4CCN(C(=O)CN)CC4)c3=O)c(Cl)c2)no1
		< 0.05 µM	0.5 to 5 µM	≥ 5 µM	Cc1nc(-c2ccc(-c3cc4cnc(NC5CCOCC5)nc4n(C4CCOC(C)(C)C4)c3=O)c(Cl)c2)no1 (centres unmarked)
		0.05 to 0.5 µM	≥ 5 µM	≥ 5 µM	CCn1c(=O)c(-c2ccc(-c3noc(C)n3)cc2Cl)cc2cnc(NC3CCOC(C)(C)C3)nc21 (centres unmarked)
		< 0.05 µM	0.05 to 0.5 µM	≥ 5 µM	Cc1nc(-c2ccc(-c3cc4cnc(NC5CCOCC5)nc4n(Cc4cccc(CCN)c4)c3=O)c(Cl)c2)no1 [drawing 339]
		0.05 to 0.5 µM	≥ 5 µM	≥ 5 µM	CCn1c(=O)c(-c2ccc(-c3noc(C)n3)cc2Cl)cc2cnc(NCCC3CCN(C)CC3)nc21 [drawing 361]
		0.05 to 0.5 µM	≥ 5 µM	≥ 5 µM	Cc1nc(-c2ccc(-c3cc4cnc(NC5CCOCC5)nc4n(C4CCOCC4)c3=O)c(Cl)c2)no1
		< 0.05 µM	0.5 to 5 µM	≥ 5 µM	Cc1nc(-c2ccc(-c3cc4cnc(NC5CCOCC5)nc4n(Cc4cccc(OCCN)c4)c3=O)c(Cl)c2)no1 [drawing 344]
		0.05 to 0.5 µM	0.5 to 5 µM	≥ 5 µM	CCN1CCC(CCNc2ncc3cc(-c4ccc(-c5noc(C)n5)cc4Cl)c(=O)n(CC)c3n2)CC1
		< 0.05 µM	0.5 to 5 µM	≥ 5 µM	Cc1nc(-c2ccc(-c3cc4cnc(NC5CC5)nc4n(Cc4cccc(CN)c4)c3=O)c(Cl)c2)no1
		0.05 to 0.5 µM	≥ 5 µM	≥ 5 µM	Cc1nc(-c2ccc(-c3cc4cnc(NC5CCOCC5)nc4n(C4CCN(CCN)C4)c3=O)c(Cl)c2)no1 (centres unmarked)
		0.05 to 0.5 µM	≥ 5 µM	≥ 5 µM	Cc1nc(-c2ccc(-c3cc4cnc(NC5CCOCC5)nc4n(CC4CCCNC4)c3=O)c(Cl)c2)no1 (centres unmarked)
		< 0.05 µM	0.5 to 5 µM	≥ 5 µM	Cc1nc(-c2ccc(-c3cc4cnc(NC5CCNC(=O)C5)nc4n(Cc4c(F)cccc4C(F)(F)F)c3=O)c(Cl)c2)no1 (centres unmarked) [drawing 354]
		< 0.05 µM	0.5 to 5 µM	≥ 5 µM	Cc1nc(-c2ccc(-c3cc4cnc(N[C@H]5C[C@@H]5C)nc4n(CC4CCNCC4)c3=O)c(Cl)c2)no1
		< 0.05 µM	0.5 to 5 µM	≥ 5 µM	Cc1nc(-c2ccc(-c3cc4cnc(NC5CCOCC5)nc4n(CCC4CCNCC4)c3=O)c(Cl)c2)no1 [drawing 343]
		< 0.05 µM	0.05 to 0.5 µM	≥ 5 µM	Cc1nc(-c2ccc(-c3cc4cnc(NC5CCOCC5)nc4n(Cc4ccc(CN)cc4)c3=O)c(Cl)c2)no1 [drawing 341]
		0.05 to 0.5 µM	≥ 5 µM	≥ 5 µM	Cc1nc(-c2ccc(-c3cc4cnc(NC5CCOCC5)nc4n(CC(=O)NC4CCNC4)c3=O)c(Cl)c2)no1 (centres unmarked) [drawing 346]
		0.05 to 0.5 µM	≥ 5 µM	≥ 5 µM	Cc1nc(-c2ccc(-c3cc4cnc(NC5CCOCC5)nc4n(CC(=O)N4CCCC(CN)C4)c3=O)c(Cl)c2)no1 (centres unmarked)
		0.05 to 0.5 µM	≥ 5 µM	≥ 5 µM	Cc1nc(-c2ccc(-c3cc4cnc(NC5CCOCC5)nc4n(-c4ccccc4)c3=O)c(Cl)c2)no1
		0.05 to 0.5 µM	≥ 5 µM	≥ 5 µM	Cc1nc(-c2ccc(-c3cc4cnc(NC5CCOCC5)nc4n(Cc4ccc5c(c4)CNC5)c3=O)c(Cl)c2)no1

Source: US20130116263A1, “PAK INHIBITORS FOR THE TREATMENT OF CELL PROLIFERATIVE DISORDERS” (AFRAXIS, INC., priority 2011, published 2013)
